Results published in US9497966B2, “Pesticidal compositions and related methods” (DOW AGROSCIENCES LLC, priority 2013, dated 2016).

What was measured:
[1] = test system: Green Peach Aphid (Myzus persicae) (GPA) (MYZUPE); assay: Bioassay for Green Peach Aphid, foliar spray on infested cabbage seedlings; assay type: in vivo; conditions: 72 h, 200 ppm foliar spray on cabbage, graded after three days, Abbott-corrected % control, read-out: % Control (or Mortality) rating, GPA
Description: Example A: Bioassays for Green Peach Aphid (Myzus persicae) (GPA) (MYZUPE)
Cabbage seedlings grown in 3-inch pots, with 2-3 small (3-5 cm) true leaves, were used as test substrate. The seedlings were infested with 20-50 GPA (wingless adult and nymph stages) one day prior to chemical application. Four pots with individual seedlings were used for each treatment. Test compounds (2 mg) were dissolved in 2 mL of acetonemethanol (1:1) solvent, forming stock solutions of 1000 ppm test compound. The stock solutions were diluted 5× with 0.025% Tween 20 in H2O to obtain the solution at 200 ppm test compound. A hand-held aspirator-type sprayer was used for spraying a solution to both sides of […] leaves until runoff. Reference plants (solvent check) were sprayed with the diluent only containing 20% by volume of acetonemethanol (1:1) solvent. Treated plants were held in a holding room for three days at approximately 25° C. and ambient relative humidity (RH) prior to grading. Evaluation was conducted by counting the number of live aphids per plant under a microscope. Percent control was measured by using Abbott's correction formula (W. S. Abbott, “A Method of Computing the Effectiveness of an Insecticide,” J. Econ. Entomol. 18 (1925), pp. 265-267) as follows. Corrected % Control=100*(X−Y)/X • where • X=No. of live aphids on solvent check plants and • Y=No. of live aphids on treated plants The results are indicated in the table entitled “TABLE 2. Biological Data for Green Peach Aphid (MYZUPE) and Sweetpotato Whitefly-crawler (WF) (BEMITA)” (See Table Section).

[2] = test system: Sweetpotato Whitefly-Crawler (Bemisia tabaci) (WF) (BEMITA); assay: Insecticidal test for Sweetpotato Whitefly-Crawler in foliar spray assay on cotton plants; assay type: in vivo; conditions: 216 h, 200 ppm foliar spray on cotton, graded after 9 days, Abbott-corrected % control, read-out: % Control (or Mortality) rating, WF
Description: Example B: Insecticidal Test for Sweetpotato Whitefly-Crawler (Bemisia tabaci) (WF) (BEMITA) in Foliar Spray Assay
Cotton plants (Gossypium hirsutum) grown in 3-inch pots, with 1 small (4-5 cm) true leaves, were used as test substrate. The plants were infested with 200-400 whitefly eggs 4-5 days prior to chemical application. Four pots with individual plants were used for each treatment. Test compounds (2 mg) were dissolved in 1 mL of acetone solvent, forming stock solutions of 2000 ppm test compound. The stock solutions were diluted 10× with 0.025% Tween 20 in H2O (diluents) to obtain the solution at 200 ppm test compound. A hand-held aspirator-type sprayer was used for spraying a solution to both sides of cotton leaves until runoff. Reference plants (solvent check) were sprayed with the diluent only containing 10% by volume of acetone solvent. Treated plants were held in a holding room for 9 days at approximately 25° C. and ambient relative humidity (RH) prior to grading. Evaluation was conducted by counting the number of live 3-4 nymph stage per plant under a microscope. Percent control was measured by using Abbott's correction formula (W. S. Abbott, “A Method of Computing the Effectiveness of an Insecticide,” J. Econ. Entomol. 18 (1925), pp. 265-267) as follows. Corrected % Control=100*(X−Y)/X • where • X=No. of live nymphs on solvent check plants and • Y=No. of live nymphs on treated plants.
Biological Data for Green Peach Aphid (MYZUPE) and Sweetpotato Whitefly-crawler (WF) (BEMITA)” (See Table Section).

Compound	mortality at 200 ppm [1]	mortality at 200 ppm [2]
C#CCN(C(=O)C(CSC(c1ccccc1)(c1ccccc1)c1ccccc1)=NOCC)c1cn(-c2cccnc2)nc1Cl [Compound F1, N-(3-chloro-1-(pyridin-3-yl)-1H-pyrazol-4-yl)-2-(ethoxyimino)-N-(prop-2-yn-1-yl)-3-(tritylthio)propanamide]	< 0%	0 to 80%
C#CCN(C(=O)C(CSCC1CC1(F)F)=NOC)c1cn(-c2cccnc2)nc1Cl (stereo not shown) [Compound F2, N-(3-Chloro-1-(pyridin-3-yl)-1H-pyrazol-4-yl)-3-(((2,2-difluorocyclopropyl)methyl)thio)-2-(methoxyimino)-N-(prop-2-yn-1-yl)propanamide]	80 to 100%	80 to 100%
CCN(C(=O)C(CS(=O)(=O)CC1CC1(F)F)=NOC)c1cn(-c2cccnc2)nc1Cl (stereo not shown) [Compound F3]	80 to 100%	80 to 100%
C#CCN(C(=O)C(CSC(c1ccccc1)(c1ccccc1)c1ccccc1)=NOC)c1cn(-c2cccnc2)nc1Cl [Compound F4, N-(3-chloro-1-(pyridin-3-yl)-1H-pyrazol-4-yl)-2-(methoxyimino)-N-(prop-2-yn-1-yl)-3-(tritylthio)propanamide]	< 0%	0 to 80%
CCN(C(=O)C(CSCC1CC1(F)F)=NOC)c1cn(-c2cccnc2)nc1Cl (stereo not shown) [Compound F5]	80 to 100%	80 to 100%
C#CCN(C(=O)C(CSCC(F)(F)F)=NOC)c1cn(-c2cccnc2)nc1Cl [Compound F6, N-(3-Chloro-1-(pyridin-3-yl)-1H-pyrazol-4-yl)-2-(methoxyimino)-N-(prop-2-yn-1-yl)-3-((2,2,2-trifluoroethyl)thio)propanamide]	80 to 100%	80 to 100%
C#CCN(C(=O)C(CS)=NOCC)c1cn(-c2cccnc2)nc1Cl [Compound F7, N-(3-Chloro-1-(pyridin-3-yl)-1H-pyrazol-4-yl)-2-(ethoxyimino)-3-mercapto-N-(prop-2-yn-1-yl)propanamide]	80 to 100%	< 0%
CCN(C(=O)C(CS(=O)(=O)CCC(F)(F)F)=NOC)c1cn(-c2cccnc2)nc1Cl [Compound F8, N-(3-Chloro-1-(pyridin-3-yl)-1H-pyrazol-4-yl)-N-ethyl-2-(methoxyimino)-3-((3,3,3-trifluoropropyl)sulfonyl)propanamide]	80 to 100%	80 to 100%
CCN(C(=O)C(CS)=NOC)c1cn(-c2cccnc2)nc1Cl [Compound F9, N-(3-Chloro-1-(pyridin-3-yl)-1H-pyrazol-4-yl)-N-ethyl-3-mercapto-2-(methoxyimino)propanamide]	80 to 100%	0 to 80%
CCON=C(CSCC1CC1(F)F)C(=O)N(CC)c1cn(-c2cccnc2)nc1Cl (stereo not shown) [Compound F11, N-(3-Chloro-1-(pyridin-3-yl)-1H-pyrazol-4-yl)-3-(((2,2-difluorocyclopropyl)methyl)thio)-2-(ethoxyimino)-N-ethylpropanamide]	80 to 100%	80 to 100%
CCON=C(CSC(c1ccccc1)(c1ccccc1)c1ccccc1)C(=O)N(CC)c1cn(-c2cccnc2)nc1Cl [Compound F12, N-(3-chloro-1-(pyridin-3-yl)-1H-pyrazol-4-yl)-2-(ethoxyimino)-N-ethyl-3-(tritylthio)propanamide]	0 to 80%	80 to 100%
C=CCON=C(CSC(c1ccccc1)(c1ccccc1)c1ccccc1)C(=O)N(CC)c1cn(-c2cccnc2)nc1Cl [Compound F13, 2-((Allyloxy)imino)-N-(3-chloro-1-(pyridin-3-yl)-1H-pyrazol-4-yl)-N-ethyl-3-(tritylthio)propanamide]	0 to 80%	0 to 80%
CCN(C(=O)C(CSCCC(F)(F)F)=NOC)c1cn(-c2cccnc2)nc1Cl [Compound F14, N-(3-chloro-1-(pyridin-3-yl)-1H-pyrazol-4-yl)-N-ethyl-2-(methoxyimino)-3-((3,3,3-trifluoropropyl)thio)propanamide]	80 to 100%	80 to 100%
CCON=C(CSCCCC(F)(F)F)C(=O)N(CC)c1cn(-c2cccnc2)nc1Cl [Compound F15, N-(3-Chloro-1-(pyridin-3-yl)-1H-pyrazol-4-yl)-2-(ethoxyimino)-N-ethyl-3-((4,4,4-trifluorobutyl)thio)propanamide]	80 to 100%	80 to 100%
C#CCN(C(=O)C(CSCCC(F)(F)F)=NOCC)c1cn(-c2cccnc2)nc1Cl [Compound F16, N-(3-Chloro-1-(pyridin-3-yl)-1H-pyrazol-4-yl)-2-(ethoxyimino)-N-(prop-2-yn-1-yl)-3-((3,3,3-trifluoropropyl)thio)propanamide]	80 to 100%	80 to 100%
CCON=C(CSCC(F)(F)F)C(=O)N(CC)c1cn(-c2cccnc2)nc1Cl [Compound F17, N-(3-Chloro-1-(pyridin-3-yl)-1H-pyrazol-4-yl)-2-(ethoxyimino)-N-ethyl-3-((2,2,2-trifluoroethyl)thio)propanamide]	80 to 100%	80 to 100%
CCN(C(=O)C(C[S+]([O-])CCC(F)(F)F)=NOC)c1cn(-c2cccnc2)nc1Cl (stereo not shown) [Compound F18, N-(3-Chloro-1-(pyridin-3-yl)-1H-pyrazol-4-yl)-N-ethyl-2-(methoxyimino)-3-((3,3,3-trifluoropropyl)sulfinyl)propanamide]	80 to 100%	80 to 100%
C#CCN(C(=O)C(CSCCCC(F)(F)F)=NOC)c1cn(-c2cccnc2)nc1Cl [Compound F19, N-(3-Chloro-1-(pyridin-3-yl)-1H-pyrazol-4-yl)-2-(methoxyimino)-N-(prop-2-yn-1-yl)-3-((4,4,4-trifluorobutyl)thio)propanamide]	80 to 100%	80 to 100%
CCON=C(CS)C(=O)N(CC)c1cn(-c2cccnc2)nc1Cl [Compound F20, N-(3-chloro-1-(pyridin-3-yl)-1H-pyrazol-4-yl)-2-(ethoxyimino)-N-ethyl-3-mercaptopropanamide]	80 to 100%	0 to 80%
C#CCN(C(=O)C(CSCCC(F)(F)F)=NOC)c1cn(-c2cccnc2)nc1Cl [Compound F21, N-(3-Chloro-1-(pyridin-3-yl)-1H-pyrazol-4-yl)-2-(methoxyimino)-N-(prop-2-yn-1-yl)-3-((3,3,3-trifluoropropyl)thio)propanamide]	80 to 100%	80 to 100%
CCN(C(=O)C(C[S+]([O-])CC1CC1(F)F)=NOC)c1cn(-c2cccnc2)nc1Cl (stereo not shown) [Compound F22]	80 to 100%	80 to 100%
C#CCN(C(=O)C(CS)=NOC)c1cn(-c2cccnc2)nc1Cl [Compound F23, N-(3-Chloro-1-(pyridin-3-yl)-1H-pyrazol-4-yl)-3-mercapto-2-(methoxyimino)-N-(prop-2-yn-1-yl)propanamide]	0 to 80%	0 to 80%
CCON=C(CSCCC(F)(F)F)C(=O)N(CC)c1cn(-c2cccnc2)nc1Cl [Compound F24, N-(3-chloro-1-(pyridin-3-yl)-1H-pyrazol-4-yl)-2-(ethoxyimino)-N-ethyl-3-((3,3,3-trifluoropropyl)thio)propanamide]	80 to 100%	80 to 100%
